According to patent US11492597B2, “Method for establishing colorectal cancer HK2 reporter gene cell line” (Guangdong Medical University, priority 2018, dated 2022):

Key:
HK2 = test: 2-MeOE2 treatment of HK2 reporter cell line, transcriptional level of HK2; assay type: cell-based; conditions: HK2 cell line treated for 24 h or 48 h, 10 uM, relative transcriptional level vs untreated control
Description: (§1) 2-Methoxyestradiol (2-MeOE2) is an HIF inhibitor, and at present, has entered an anti-tumor clinical second-stage test stage. […] The HK2 cell line is treated for 24 h or 48 h in 2-MeOE2 (10 uM), and the relative expression changes of the transcriptional level of HK2 and EGFP and those untreated as a control are analyzed. […] The experimental result further proves that the colorectal cancer HK2 reporter gene cell line constructed in the present invention can be used for screening and evaluating related anticancer drugs.

EGFP = test: 2-MeOE2 treatment of HK2 reporter cell line, transcriptional level of EGFP reporter; assay type: cell-based; conditions: HK2 cell line treated for 24 h or 48 h, 10 uM, relative transcriptional level vs untreated control
Description: as §1

Question: Which “expression level of HK2” value (HK2) does the source give for `COc1cc2c(cc1O)CC[C@@H]1[C@@H]2CC[C@]2(C)[C@@H](O)CC[C@@H]12` [2-MeOE2, 2-Methoxyestradiol] here?
Answer: The value was “obviously inhibited”.

Question: And the “expression of the EGFP” value (EGFP)?
Answer: The value was “synergistically inhibited”.
